Results taken from patent US11787762B2, “Tetralin and tetrahydroquinoline compounds as inhibitors of HIF-2alpha” (ARCUS BIOSCIENCES, INC., priority 2020, dated 2023).

Key:
[1] = biological target: T1, Histidine tagged HIF-2α protein containing PAS-B domain (240-350) (Homo sapiens, UniProt Q99814); experiment: HIF-2α Scintillation Proximity Assay (SPA) binding assay; conditions: 50 nM HIF-2α protein, 25 nM 3H-tracer
T1 construct: HIF-2α protein containing PAS-B domain (240-350); made in house
Description: HIF-2α Scintillation Proximity Assay (SPA) Binding Assay:
Tritium labeled compound N-(3-chlorophenyl)-4-nitro-2,1,3-benzoxadiazol-5-amine was obtained from American Radiolabeled Chemicals Inc. and copper chelate PVT SPA beads were from PerkinElmer (Cat #RPNQ0095). Histidine tagged HIF-2α protein containing PAS-B domain (240-350) was prepared and purified in house.
Compounds solubilized in DMSO were dispensed into a white 384-well polystyrene non-binding flat clear bottom plate (Greiner Bio-One, Cat #781903) using an HP D300 dispenser. Ten microliters of HIS-tagged HIF-2α protein in buffer (25 mM Tris-HCl, pH 7.4, 150 mM NaCl, 0.15% BSA and 0.001% Tween 20) was added to the compound wells and allowed to incubate for 1 hour at room temperature. Ten microliters of SPA bead mix were added to the wells and incubated for an additional 45 minutes, followed by 10 ul of ^3H-tracer solution. Final assay conditions comprised 50 nM HIF-2α protein, 25 nM radiolabeled tracer and 3 ug beads per well with compounds in 2% DMSO. The plate was read using a MicroBeta Microplate Counter (PerkinElmer) for luminescence detection. The IC50 values of the test compounds were determined from compound dose response curves fitted using a standard four parameter fit equation and are reported in Table 1, Table 2, and Table 3.

HIF-2α = biological target: T2, HIF-2α (Homo sapiens, UniProt Q99814); experiment: HIF-2α luciferase reporter assay in HIF-Luc-786-O cells; assay type: cell-based
T2 construct: host or cells: 786-O cells stably transduced with Cignal Lenti HIF Luc Reporter (only the reporter was introduced, not HIF-2α)
T2 sequence (Q99814 whole entry): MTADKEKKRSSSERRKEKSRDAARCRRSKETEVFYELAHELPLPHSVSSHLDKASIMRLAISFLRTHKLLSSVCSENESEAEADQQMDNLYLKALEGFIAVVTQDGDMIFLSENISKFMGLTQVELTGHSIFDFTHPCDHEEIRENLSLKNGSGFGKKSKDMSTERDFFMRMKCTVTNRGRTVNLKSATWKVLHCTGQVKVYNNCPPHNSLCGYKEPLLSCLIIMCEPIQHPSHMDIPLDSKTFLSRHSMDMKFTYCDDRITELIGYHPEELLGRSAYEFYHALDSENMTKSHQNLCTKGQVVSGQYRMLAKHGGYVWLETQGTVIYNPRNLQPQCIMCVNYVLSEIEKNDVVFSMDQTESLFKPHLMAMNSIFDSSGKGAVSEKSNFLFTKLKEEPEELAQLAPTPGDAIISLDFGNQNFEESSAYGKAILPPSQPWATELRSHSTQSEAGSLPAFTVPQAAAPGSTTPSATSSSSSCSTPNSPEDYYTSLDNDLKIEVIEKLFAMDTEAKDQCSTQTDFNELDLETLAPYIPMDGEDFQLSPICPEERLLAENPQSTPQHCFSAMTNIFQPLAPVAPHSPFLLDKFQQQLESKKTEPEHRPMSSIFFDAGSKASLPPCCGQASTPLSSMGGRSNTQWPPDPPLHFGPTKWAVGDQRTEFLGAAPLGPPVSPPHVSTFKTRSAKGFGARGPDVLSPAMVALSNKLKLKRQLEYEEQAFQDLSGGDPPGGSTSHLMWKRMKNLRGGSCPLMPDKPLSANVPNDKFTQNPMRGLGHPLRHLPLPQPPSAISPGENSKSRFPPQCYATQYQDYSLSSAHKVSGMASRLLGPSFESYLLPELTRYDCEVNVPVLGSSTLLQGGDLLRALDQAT
How it was run: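 Luminescence (ONE-Glo) read after 20 h compound incubation, top concentration 50 uM, 1% DMSO, 20,000 HIF-Luc-786-O cells per well. Activity scaled between DMSO maximum and no-cell baseline; four-parameter dose-response fits yielded IC50.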

T1 sequence (Q99814 240-350): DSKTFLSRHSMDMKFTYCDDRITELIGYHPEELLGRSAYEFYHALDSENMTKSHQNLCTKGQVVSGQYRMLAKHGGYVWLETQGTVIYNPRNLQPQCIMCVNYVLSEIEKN

Structure (SMILES)	IC50 ([1]; Table 1)	IC50 (HIF-2α; Table 1, 20 hours incubation)	other results
N#Cc1cc(F)cc2c1N(c1ccc(C(F)(F)F)c(F)c1Cl)CCC2 [Example 15, 1-[2-chloro-3-fluoro-4-(trifluoromethyl)phenyl]-6-fluoro-1,2,3,4-tetrahydroquinoline-8-carbonitrile]	100 to 1000 nM	100 to 1000 nM	
CS(=O)(=O)c1ccc([C@H]2C[C@H](F)[C@H](F)c3cc(F)cc(C#N)c32)c2c1[C@H](O)[C@H](F)C2 [Example 215, (5R,6S,8R)-3,5,6-trifluoro-8-[(1S,2R)-2-fluoro-1-hydroxy-7-methanesulfonyl-2,3-dihydro-1H-inden-4-yl]-5,6,7,8-tetrahydronaphthalene-1-carbonitrile]			IC50 ([1]; Table 3): < 100 nM; IC50 (HIF-2α; Table 3, 20 hours incubation): < 100 nM
Cc1c(N2CCC(F)(F)c3cc(F)cc(C#N)c32)cnc(C(F)(F)F)c1F [Example 129, 4,4,6-Trifluoro-1-[5-fluoro-4-methyl-6-(trifluoromethyl)pyridin-3-yl]-2,3-dihydroquinoline-8-carbonitrile]			IC50 ([1]; Table 2): < 100 nM; IC50 (HIF-2α; Table 2, 20 hours incubation): < 100 nM
O=S(=O)(c1ccc(C2CCCc3cc(F)cc(F)c32)c2c1[C@H](O)[C@H](F)C2)C(F)(F)F (stereo partly shown) [Example 89]	< 100 nM	< 100 nM	
Cc1cnccc1-c1ccc([C@H]2CC[C@H](F)c3cc(F)cc(C#N)c32)c2c1[C@H](O)C(F)(F)C2 [Example 242, (5S,8R)-8-[(1S)-2,2-difluoro-1-hydroxy-7-(3-methylpyridin-4-yl)-2,3-dihydro-1H-inden-4-yl]-3,5-difluoro-5,6,7,8-tetrahydronaphthalene-1-carbonitrile]			IC50 ([1]; Table 3): < 100 nM; IC50 (HIF-2α; Table 3, 20 hours incubation): < 100 nM
CS(=O)(=O)c1ccc(N2CCC(F)c3cc(F)cc(C#N)c32)c(C#N)c1Cl (stereo not shown) [Example 122, 1-(3-chloro-2-cyano-4-methylsulfonylphenyl)-4,6-difluoro-3,4-dihydro-2H-quinoline-8-carbonitrile]			IC50 ([1]; Table 2): < 100 nM; IC50 (HIF-2α; Table 2, 20 hours incubation): < 100 nM
O=S(=O)(c1ccc([C@H]2CCOc3cc(F)cc(F)c32)c2c1[C@H](O)[C@H](F)C2)C(F)(F)F [Example 8, (1S,2R)-4-[(4R)-5,7-difluoro-3,4-dihydro-2H-1-benzopyran-4-yl]-2-fluoro-7-trifluoromethanesulfonyl-2,3-dihydro-1H-inden-1-ol]	100 to 1000 nM	100 to 1000 nM	
O=Cc1c(S(=O)(=O)C(F)(F)F)ccc(N2CCCc3cc(F)cc(F)c32)c1Cl [Example 69]	100 to 1000 nM	> 1000 nM	
N#Cc1cc(F)cc2c1N(c1cnc(C(F)(F)F)c(F)c1)CCC2 [Example 32]	100 to 1000 nM	100 to 1000 nM	
COC(=O)c1cc(N2CCCc3cc(F)cc(F)c32)ccc1S(=O)(=O)C(F)(F)F [Example 77]	> 1000 nM	> 1000 nM	
CS(=O)(=O)c1ccc(N2CCCc3cc(F)cc(Cl)c32)c2c1[C@H](O)[C@H](F)C2 [Example 47]	100 to 1000 nM	> 1000 nM	
Cc1ncccc1-c1ccc([C@H]2CC[C@H](F)c3cc(F)cc(C#N)c32)c2c1[C@H](O)C(F)(F)C2 [Example 159, (5S,8R)-8-[(1S)-2,2-difluoro-1-hydroxy-7-(2-methylpyridin-3-yl)-1,3-dihydroinden-4-yl]-3,5-difluoro-5,6,7,8-tetrahydronaphthalene-1-carbonitrile]			IC50 ([1]; Table 3): < 100 nM; IC50 (HIF-2α; Table 3, 20 hours incubation): < 100 nM
CS(=O)(=O)c1ccc(N2CCCc3cc(F)cc(F)c32)c(Cl)c1C#N [Example 43]	100 to 1000 nM	> 1000 nM	
O=S(=O)(c1ccc(N2CCCc3cc(F)cc(F)c32)cc1CO)C(F)(F)F [Example 76]	> 1000 nM	> 1000 nM	
CC1(O)c2c(S(C)(=O)=O)ccc([C@H]3CCCc4cc(F)cc(F)c43)c2CC1(F)F (stereo partly shown) [Example 113]	> 1000 nM	> 1000 nM	
N#Cc1cc(N2CCCc3cc(F)cc(C#N)c32)cnc1C(F)(F)F [Example 14, 1-[5-cyano-6-(trifluoromethyl)pyridin-3-yl]-6-fluoro-1,2,3,4-tetrahydroquinoline-8-carbonitrile]	100 to 1000 nM	100 to 1000 nM	

Structure (SMILES)	IC50 ([1]; Table 1)	IC50 (HIF-2α; Table 1, 20 hours incubation)	other results
N#Cc1cc(F)cc2c1[C@@H](c1ccc(-c3cccnc3CF)c3c1CC(F)(F)[C@H]3O)CC[C@@H]2F [Example 173]			IC50 ([1]; Table 3): < 100 nM; IC50 (HIF-2α; Table 3, 20 hours incubation): < 100 nM
N#Cc1cc(F)cc2c1N(c1ccc(C(F)(F)F)c(F)c1C#N)CCC2(F)F [Example 125, 1-[2-cyano-3-fluoro-4-(trifluoromethyl)phenyl]-4,4,6-trifluoro-2,3-dihydroquinoline-8-carbonitrile]			IC50 ([1]; Table 2): < 100 nM; IC50 (HIF-2α; Table 2, 20 hours incubation): < 100 nM
O=S(=O)(c1ccc(C2CCCc3cc(F)cc(F)c32)c2ccncc12)C(F)(F)F (stereo not shown) [Example 25, 5-(6,8-Difluoro-1,2,3,4-tetrahydronaphth-1-yl)-8-(trifluoromethylsulfonyl)isoquinoline]	> 1000 nM	> 1000 nM	
N#Cc1cc(F)cc2c1[C@@H](c1ccc(Cl)c3c1CC(F)(F)[C@H]3O)CCC2 [Example 117]	100 to 1000 nM	100 to 1000 nM	
N#Cc1cc(F)cc2c1[C@@H](c1ccc(S(=O)(=O)C(F)(F)F)c3c1C[C@@H](F)[C@H]3O)CC[C@@H]2F [Example 136, (5S,8R)-3,5-Difluoro-8-[(1S,2R)-2-fluoro-1-hydroxy-7-(trifluoromethylsulfonyl)-2,3-dihydro-1H-inden-4-yl]-5,6,7,8-tetrahydronaphthalene-1-carbonitrile]			IC50 ([1]; Table 2): < 100 nM; IC50 (HIF-2α; Table 2, 20 hours incubation): < 100 nM
O=S(=O)(c1ccc(N2CCCc3cc(F)cc(F)c32)c2c1C(O)C(F)(F)C2)C(F)(F)F (stereo not shown) [Example 38]	100 to 1000 nM	100 to 1000 nM	
N#Cc1cc(F)cc2c1N(c1ccc(S(=O)(=O)C(F)(F)F)c(C#N)c1Cl)CCC2 [Example 10, 1-(2-chloro-3-cyano-4-trifluoromethanesulfonylphenyl)-6-fluoro-1,2,3,4-tetrahydroquinoline-8-carbonitrile]	< 100 nM	< 100 nM	
CS(=O)(=O)c1ccc(N2CCCc3cc(F)cc(C#N)c32)c(Cl)c1C#N [Example 11, 1-(2-Chloro-3-cyano-4-methanesulfonylphenyl)-6-fluoro-1,2,3,4-tetrahydroquinoline-8-carbonitrile]	100 to 1000 nM	100 to 1000 nM	
Cc1ncsc1-c1ccc([C@H]2CC[C@H](F)c3cc(F)cc(C#N)c32)c2c1[C@H](O)C(F)(F)C2 [Example 167, (5S,8R)-8-[(1S)-2,2-difluoro-1-hydroxy-7-(4-methyl-1,3-thiazol-5-yl)-2,3-dihydro-1H-inden-4-yl]-3,5-difluoro-5,6,7,8-tetrahydronaphthalene-1-carbonitrile]			IC50 ([1]; Table 3): < 100 nM; IC50 (HIF-2α; Table 3, 20 hours incubation): < 100 nM
N#Cc1cc(F)cc2c1[C@H](c1ccc(S(=O)(=O)C(F)(F)F)c3c1C[C@@H](F)[C@H]3O)CCC2 [Example 6, (S)-3-fluoro-8-((1S,2R)-2-fluoro-1-hydroxy-7-((trifluoromethyl)sulfonyl)-2,3-dihydro-1H-inden-4-yl)-5,6,7,8-tetrahydronaphthalene-1-carbonitrile]	> 1000 nM	> 1000 nM	
CS(=O)(=O)c1ccc([C@@H]2CNCc3cc(F)cc(F)c32)c2c1[C@H](O)C(F)(F)C2 [Example 107]	> 1000 nM	> 1000 nM	
N#Cc1cc(F)cc2c1[C@@H](c1ccc(-c3ccncc3)c3c1CC(F)(F)[C@H]3O)CC[C@@H]2F [Example 156, (5S,8R)-8-[(1S)-2,2-difluoro-1-hydroxy-7-pyridin-4-yl-1,3-dihydroinden-4-yl]-3,5-difluoro-5,6,7,8-tetrahydronaphthalene-1-carbonitrile]			IC50 (HIF-2α; Table 3, 20 hours incubation): 100 to 1000 nM
Cn1ccnc1-c1ccc([C@H]2CC[C@H](F)c3cc(F)cc(C#N)c32)c2c1[C@H](O)C(F)(F)C2 [Example 238, (5S,8R)-8-[(1S)-2,2-difluoro-1-hydroxy-7-(1-methylimidazol-2-yl)-1,3-dihydroinden-4-yl]-3,5-difluoro-5,6,7,8-tetrahydronaphthalene-1-carbonitrile]			IC50 (HIF-2α; Table 3, 20 hours incubation): 100 to 1000 nM
CS(=O)(=O)c1ccc([C@H]2CC[C@H](F)c3cc(F)cc(C#N)c32)c2c1[C@H](O)[C@@](F)(C#N)C2 [Example 247, (5S,8R)-8-[(1S,2S)-2-cyano-2-fluoro-1-hydroxy-7-methylsulfonyl-1,3-dihydroinden-4-yl]-3,5-difluoro-5,6,7,8-tetrahydronaphthalene-1-carbonitrile]			IC50 (HIF-2α; Table 3, 20 hours incubation): < 100 nM
Cc1nc(N)sc1-c1ccc([C@H]2CC[C@H](F)c3cc(F)cc(C#N)c32)c2c1[C@H](O)C(F)(F)C2 [Example 188, (5S,8R)-8-[(1S)-7-(2-amino-4-methyl-1,3-thiazol-5-yl)-2,2-difluoro-1-hydroxy-1,3-dihydroinden-4-yl]-3,5-difluoro-5,6,7,8-tetrahydronaphthalene-1-carbonitrile]			IC50 (HIF-2α; Table 3, 20 hours incubation): 100 to 1000 nM
